Test results taken from the supplement of paper PMC10307832.

Key:
Experiment in all cases: relative viability (nuclei count vs DMSO), 5 days (fraction); higher = more cells survive
[1] = compound: Cc1ccc2nc(NCCN)c3ncc(C)n3c2c1 + CC1(C)CCC(c2ccc(Cl)cc2)=C(CN2CCN(c3ccc(C(=O)NS(=O)(=O)c4ccc(N[C@H](CCN5CCOCC5)CSc5ccccc5)c(S(=O)(=O)C(F)(F)F)c4)cc3)CC2)C1 [Navitoclax] (partner 0.5 µM)
How it was run: (§1)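 Medians of duplicate plates are given as relative viability. That measure is the nuclei count in treated wells divided by the count in vehicle wells. Counts were taken on 4× images of lung cancer cell lines in 1536-well plates, 5 days after pin-tool dosing the day after seeding with one drug alone or a fixed anchor-drug dose plus five library-drug doses (not always all listed) in √10 steps.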

[2] = compound: Cc1ccc2nc(NCCN)c3ncc(C)n3c2c1 + N=C(N)NC(=N)NCCc1ccccc1 [Phenformin] (partner 250 µM)
How it was run: as §1

Salubrinal + Luminespib = compound: O=C(/C=C/c1ccccc1)NC(NC(=S)Nc1cccc2cccnc12)C(Cl)(Cl)Cl [Salubrinal] + CCNC(=O)c1noc(-c2cc(C(C)C)c(O)cc2O)c1-c1ccc(CN2CCOCC2)cc1 [Luminespib] (partner 0.01 µM)
How it was run: as §1

Salubrinal + Alpelisib = compound: O=C(/C=C/c1ccccc1)NC(NC(=S)Nc1cccc2cccnc12)C(Cl)(Cl)Cl [Salubrinal] + Cc1nc(NC(=O)N2CCC[C@H]2C(N)=O)sc1-c1ccnc(C(C)(C)C(F)(F)F)c1 [Alpelisib] (partner 2 µM)
How it was run: as §1

| Cell Line | relative viability ([1]; first compound 0.04 µM) | relative viability ([1]; first compound 0.1265 µM) | relative viability ([1]; first compound 0.4 µM) | relative viability ([1]; first compound 1.265 µM) | relative viability ([1]; first compound 4 µM) | relative viability ([2]; first compound 0.04 µM) | relative viability ([2]; first compound 0.1265 µM) | relative viability ([2]; first compound 0.4 µM) | relative viability ([2]; first compound 1.265 µM) | relative viability ([2]; first compound 4 µM) | relative viability (Salubrinal + Luminespib; first compound 0.08 µM) | relative viability (Salubrinal + Luminespib; first compound 0.253 µM) | relative viability (Salubrinal + Luminespib; first compound 0.8 µM) | relative viability (Salubrinal + Luminespib; first compound 2.53 µM) | relative viability (Salubrinal + Luminespib; first compound 8 µM) | relative viability (Salubrinal + Alpelisib; first compound 0.08 µM) | relative viability (Salubrinal + Alpelisib; first compound 0.253 µM) | relative viability (Salubrinal + Alpelisib; first compound 0.8 µM) | relative viability (Salubrinal + Alpelisib; first compound 2.53 µM) | relative viability (Salubrinal + Alpelisib; first compound 8 µM) |
| --- | --- | --- | --- | --- | --- | --- | --- | --- | --- | --- | --- | --- | --- | --- | --- | --- | --- | --- | --- | --- |
| LU99A | 0.784 | 0.822 | 0.761 | 0.883 | 0.782 | 0.797 | 0.78 | 0.673 | 0.892 | 0.798 | 0.234 | 0.264 | 0.293 | 0.243 | 0.248 | 0.644 | 0.559 | 0.66 | 0.476 | 0.53 |
| LXF-289 | 0.946 | 0.909 | 0.936 | 0.922 | 0.952 | 0.528 | 0.546 | 0.543 | 0.486 | 0.524 | 0.74 | 0.595 | 0.569 | 0.727 | 0.643 | 1.13 | 0.956 | 1.13 | 1.08 | 0.966 |
| NCI-H23 | 0.867 | 0.904 | 0.822 | 0.791 | 0.814 | 0.797 | 0.858 | 0.704 | 0.786 | 0.754 | 0.213 | 0.227 | 0.196 | 0.217 | 0.216 | 0.839 | 0.717 | 0.763 | 0.685 | 0.976 |
| NCI-H322M | 1.15 | 1.16 | 1.19 | 1.25 | 1.22 | 0.882 | 0.701 | 0.767 | 0.798 | 0.759 | 1.06 | 0.794 | 0.866 | 0.761 | 0.712 | 0.783 | 0.849 | 0.863 | 0.788 | 0.739 |
| NCI-H441 | 0.56 | 0.684 | 1.03 | 0.401 | 0.635 | 0.791 | 0.85 | 0.922 | 0.923 | 0.769 | 0.312 | 0.39 | 0.393 | 0.338 | 0.385 | 0.832 | 0.61 | 1.01 | 0.709 | 0.645 |
| NCI-H460 | 1.27 | 1.08 | 1.1 | 1.22 | 1.06 | 0.515 | 0.512 | 0.525 | 0.539 | 0.394 | 0.0402 | 0.0238 | 0.031 | 0.0302 | 0.0364 | 0.615 | 0.358 | 0.433 | 0.419 | 0.451 |
| NCI-H520 | 1.19 | 1.09 | 1.12 | 1.1 | 0.953 | 0.633 | 0.573 | 0.445 | 0.517 | 0.478 | 0.255 | 0.218 | 0.279 | 0.217 | 0.203 | 0.904 | 0.578 | 1.18 | 0.878 | 0.949 |
| NCI-H596 | 0.945 | 0.896 | 0.916 | 0.678 | 1.11 | 0.695 | 0.787 | 0.644 | 0.614 | 0.826 | 0.971 | 0.775 | 0.972 | 1.2 | 0.92 | 0.55 | 0.426 | 0.441 | 0.572 | 0.528 |
| NCI-H647 | 1.08 | 1.06 | 1.17 | 0.804 | 0.908 | 0.758 | 0.533 | 0.494 | 0.539 | 0.476 | 0.208 | 0.243 | 0.27 | 0.356 | 0.154 | 1.47 | 0.438 | 1.54 | 1.25 | 1.08 |
| NCI-H727 | 0.379 | 0.475 | 0.41 | 0.238 | 0.413 | 0.436 |  | 0.527 | 0.555 | 0.64 | 0.407 | 0.337 | 0.337 | 0.312 | 0.274 | 0.768 | 0.453 | 0.63 | 0.602 | 0.561 |
| NCI-H838 | 1.23 | 1.05 | 1.16 | 1.15 | 1.12 | 0.655 | 0.602 | 0.587 | 0.543 | 0.568 | 0.264 | 0.258 | 0.285 | 0.341 | 0.272 | 1.03 | 0.629 | 0.969 | 1.01 | 0.942 |
| NCI-H1355 | 0.909 | 0.942 | 0.924 | 0.9 | 0.806 | 0.484 | 0.476 | 0.441 | 0.391 | 0.42 | 0.801 | 0.744 | 0.555 | 0.72 | 0.705 | 0.955 | 0.942 | 0.884 | 0.852 | 0.779 |
| NCI-H1395 | 1.27 | 1.13 | 1.31 | 1 | 1.1 | 0.45 | 0.498 | 0.412 | 0.419 | 0.46 | 0.761 | 0.701 | 0.774 | 0.729 | 0.644 | 1.19 | 1.39 | 0.999 | 1.08 | 0.911 |
| NCI-H1437 | 1.08 | 1.03 | 1.12 | 1.07 | 0.992 | 0.289 | 0.298 | 0.327 | 0.298 | 0.278 | 1.21 | 0.999 | 1.19 | 1.08 | 1.12 | 1.12 | 0.782 | 1.15 | 0.94 | 0.969 |
| NCI-H1651 | 1.02 | 1.02 | 1.19 | 1.18 | 0.955 | 0.351 | 0.273 | 0.315 | 0.358 | 0.352 | 0.99 | 0.897 | 0.962 | 0.743 | 0.827 | 1.02 | 0.565 | 1.07 |  | 1.02 |
| NCI-H1666 | 0.886 | 0.922 | 0.96 | 0.89 | 0.776 | 0.574 | 0.573 | 0.521 | 0.495 | 0.535 | 0.984 | 0.903 | 0.95 | 0.945 | 1.1 | 0.985 | 0.791 | 0.923 | 1.01 | 0.993 |
